PubChem BioAssay (NCI)
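Compound exposure: 48 hours, 5 concentrations, 96-well plates. The concentration for 50% growth inhibition is given as GI50. TGI: total growth inhibition.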

Assays:
Test in all cases: inhibition of tumour cell growth, NCI panel, 48 h
[1] = test system: CAKI-1 renal
[2] = test system: NCI-H226 lung
[3] = test system: HCT-15 colon
[4] = test system: HL-60(TB) leukemia
[5] = test system: SK-MEL-2 melanoma
[6] = test system: TK-10 renal
[7] = test system: SW-620 colon
[8] = test system: HS 578T breast

Row | Structure (SMILES) | GI50 [1] | TGI [1] | GI50 [2] | TGI [2] | GI50 [3] | TGI [3] | GI50 [4] | TGI [4] | GI50 [5] | TGI [5] | GI50 [6] | TGI [6] | GI50 [7] | TGI [7] | GI50 [8] | TGI [8]
1 | COc1ccc2c(O)c(/C=C3\N=Nc4ncccc43)oc2c1C[C@H]1CCNC[C@H]1F | 0.161 µM | 11.3 µM | 0.16 µM | 5.29 µM | 0.507 µM | 12.2 µM | 0.246 µM | 0.625 µM | 1.1 µM | 3.73 µM | 0.479 µM | 9.13 µM | 0.291 µM | 2.22 µM | 0.16 µM | 5.34 µM
2 | C/C(=C1/N=C(c2ccccc2)OC1=O)c1ccc(C)cc1 | – | > 100 µM | – | > 100 µM | – | > 100 µM | – | > 100 µM | – | > 100 µM | – | > 100 µM | – | > 100 µM | – | > 100 µM
3 | COc1cc([N+](=O)[O-])c(S(=O)(=O)O)cc1N | – | > 100 µM | – | > 100 µM | – | > 100 µM | – | > 100 µM | – | > 100 µM | – | > 100 µM | – | > 100 µM | – | > 100 µM
4 | c1ccc(CCCNc2nnnc3ccccc23)cc1 | – | > 100 µM | – | > 100 µM | – | > 100 µM | – | > 100 µM | – | > 100 µM | – | > 100 µM | – | > 100 µM | – | > 100 µM
5 | CC(C)c1cccc(C(C)C)c1NC(=O)C(=O)CC(=O)CC(c1ccccc1)c1c(O)c2ccccc2oc1=O (configuration not stated) | – | > 100 µM | – | – | – | – | – | > 100 µM | – | > 100 µM | – | > 100 µM | – | > 100 µM | – | –
6 | Fc1c[c-]c(-c2ccccn2)c(F)c1.[CH3-].[Pt+2].c1ccc([PH+](c2ccccc2)c2ccccn2)cc1 | 1.23 µM | 2.53 µM | 1.73 µM | 3.8 µM | 1.44 µM | 3.59 µM | 2.05 µM | 7.28 µM | 2.22 µM | 5.86 µM | 3.59 µM | 12.9 µM | 1.92 µM | 4.55 µM | 1.96 µM | 5.89 µM
7 | CNS(=O)(=O)c1ccccc1C(=N)c1ccccc1 | – | > 100 µM | – | > 100 µM | – | > 100 µM | – | > 100 µM | – | > 100 µM | – | > 100 µM | – | > 100 µM | – | > 100 µM
8 | CCCCCCCCCCCCOC1C(CNCC2OC3OC(C)(C)OC3C2NC(=O)Nc2ccc(C(F)(F)F)cc2)OC2OC(C)(C)OC21 (configuration not stated) | 7.41 µM | 15.1 µM | 7.59 µM | 16.4 µM | 7.47 µM | 15 µM | 0.0134 µM | 0.364 µM | 9.09 µM | 19.3 µM | 3.39 µM | 7.86 µM | 4.09 µM | 10.2 µM | 5.39 µM | 14.1 µM
9 | CN(C)CCN1C(=O)c2cccc3c(N)ccc(c23)C1=O | 4.86 µM | 15 µM | 7.69 µM | > 25 µM | 9.32 µM | > 25 µM | 4.33 µM | 18.9 µM | 11.6 µM | > 25 µM | 9.15 µM | > 25 µM | 10.1 µM | > 25 µM | 15.7 µM | > 25 µM
10 | Cc1cc(C(=O)N[C@@H](CCC(=O)O)C(=O)O)sc1CC[C@@H]1CNc2nc(N)[nH]c(=O)c2C1 | < 0.01 µM | > 100 µM | < 0.0245 µM | > 100 µM | 0.042 µM | > 100 µM | < 0.0124 µM | > 100 µM | 7.78 µM | > 100 µM | < 0.0154 µM | > 100 µM | 0.0101 µM | > 100 µM | 0.114 µM | > 100 µM
11 | C=CC[N+]1(CCO)CCN=C1CCCCCCCCCCCCC (configuration not stated) | 1.65 µM | 3.15 µM | 1.7 µM | 3.43 µM | – | – | 1.51 µM | 3.1 µM | 2.04 µM | 3.69 µM | 1.99 µM | 3.4 µM | 1.63 µM | 2.98 µM | 1.58 µM | 3.76 µM
12 | O=[N+]([O-])c1cccc(/C=C/c2ccccn2)c1 | 34.5 µM | > 100 µM | 33.5 µM | > 100 µM | 4.84 µM | > 100 µM | 49.9 µM | > 100 µM | – | – | – | – | 5.95 µM | > 100 µM | 32.7 µM | > 100 µM
13 | C[n+]1c2cc(N)ccc2cc2ccc(N)cc21 (tested in a mixture with another compound) | 0.429 µM | 3.54 µM | 0.291 µM | 1.79 µM | 0.512 µM | 4.71 µM | – | – | 1.62 µM | 15.3 µM | 1.04 µM | 7.49 µM | 0.0791 µM | 6.2 µM | 0.687 µM | 3.56 µM
14 | C[C@@H]1[C@H]2[C@H](C=C3[C@@H]4CC[C@H]5Cc6nc7c(nc6C[C@]5(C)[C@H]4C[C@@H](O)[C@@]32C)C[C@@H]2CC[C@H]3C4=C[C@@H]5O[C@@]6(CC[C@](C)(CO)O6)[C@@H](C)[C@@]5(O)[C@@]4(C)[C@H](O)C[C@@H]3[C@@]2(C)C7)O[C@]12CCC(C)(C)O2 | – | – | 3.33 µM | 35.6 µM | 0.43 µM | 8.14 µM | 0.419 µM | 7.76 µM | 0.9 µM | 18 µM | 13.3 µM | 72.5 µM | 0.711 µM | 7.92 µM | 0.165 µM | 0.89 µM
15 | CCN1/C(=C/C=C/C=C/c2sc3ccccc3[n+]2CC)Sc2ccccc21 | 0.376 µM | 2.29 µM | 0.344 µM | 2.99 µM | 1.22 µM | 4.7 µM | 0.143 µM | 0.656 µM | 0.979 µM | 2.72 µM | 0.472 µM | 3.97 µM | 0.379 µM | 1.84 µM | 0.272 µM | 0.987 µM
16 | O=C1OCC2=C1C(c1cccc(C(F)(F)F)c1)c1cc3c(cc1N2CCO)OCO3 (configuration not stated) | 1.76 µM | > 50 µM | 21.7 µM | > 50 µM | 0.511 µM | > 50 µM | – | – | 1.43 µM | > 50 µM | 10.1 µM | > 50 µM | 0.84 µM | > 50 µM | 3.01 µM | > 50 µM
17 | COc1cc2cn3c4ccc(O)cc4nc(N)c3c2cc1OC | 0.299 µM | 3.22 µM | 0.201 µM | 3.54 µM | 0.721 µM | 12.1 µM | 0.887 µM | 2.41 µM | 1.89 µM | 7.61 µM | 1.54 µM | 9.55 µM | 0.119 µM | 16 µM | 0.626 µM | 22.2 µM
